From patent publication US20050043262A1, “Novel specific inhibitor of the cyclin kinase inhibitor p21Waf1/Cip1 and methods of using the inhibitor” (priority 2000, published 2005)
In the oligonucleotide strings, read from the 5' end, every base follows the letter of its sugar. An asterisk marks phosphorothioate; unmarked linkages are phosphodiester. Other units and linkages are bracketed, terminal groups are in braces. A string of capitals states the bases alone. d = 2'-deoxy (DNA)

Columns and labels:
Assay type in all cases: cell-based, human
p21 [1] = test: p21 level in MCF7 cells (immunoblot, immunohistochemistry); settings: for p21 level by immunoblot: 200 or 400 nM, 24 hours after transfection
Experimental: (§1) Antisense Transfections: […] (Wilsonville, Oreg.). The human p21 antisense ODN sequence was [NT] ID NO.: 4). The randomly scrambled sequence of control ODN was [NT] ID NO.: 3), and the second control ODN (used for the experiment depicted in FIG. 34 was the sense human p21 sequence [NT] ID NO.: 5). For the transfection procedure, cells were grown to 70% confluence and washed with sterile PBS, and the ODNs (200 or 400 nM) were mixed with 6.6 μl Lipofectin/ml Opti-MEM media and added to the cells for 5 hours at 37° C. Serum-free media (without ODNs) were added overnight, the media were changed in the morning, and the cells were stimulated with serum or platelet-derived growth factor-BB as indicated. Immunoblotting: For FIGS. 27A and B, aliquots of each breast tumor (7) and corresponding normal (N) tissue were homogenized and subjected to immunoblotting with full-length p21 antibody and α-actin as a loading control. Density of p21 and actin bands was determined and reported as a ratio. HeLa cell nuclear extract was electrophoresed on the same gel as a positive control for p21 mobility. The samples of breast cancer tissues were cut into small pieces and rapidly homogenized in lysis buffer (1 ml/ mg) at 4° C. Cells from cell lines were grown to confluence in 60-mm culture dishes, and after incubation under appropriate conditions, the cells were washed with PBS and lysed in lysis buffer at 4° C. The tissue homogenates or cell lysates were centrifuged (13,000× g, 4° C., 10 min), and the supernatants were Western blotted as described previously (Weiss, […]., and Ramirez, A., Am. J. Physiol., 274: […]-[…], 1998). Densitometry was analyzed using NIH Image. […] Percentage of cytoplasmic and nuclear staining, intensity of staining (using a scale of 0 to 3+), and tumor grading using a modified Bloom-Richardson combined histological grade were determined by a breast pathologist. […] A and B, the cells were lysed, and equal protein quantities (20 μg) were electrophoresed and immunoblotted with p21 antibody. […] Density of p21 and MAPK bands was determined and reported as a ratio. […]

p21 [2] = test: p21 level in T47D cells (immunoblot, immunohistochemistry); settings: for p21 level by immunoblot: 200 or 400 nM, 24 hours after transfection
Experimental: as §1

caspase-3 = test: Caspase-3 activity (CaspACE colorimetric assay) in T47D cells; settings: 200 to 400 nM
Experimental: Caspase-3 Activity: The CaspACE Assay System was used to measure the activity of caspase-3. After incubation under appropriate conditions, the cells were lysed in CaspACE lysis buffer, and protein concentration was determined by dye reagent protein assay (Bio-Rad, Hercules, Calif.). […] The lysates with equal protein amounts were incubated with DEVD-p-nitroaniline substrate for 4 hours at 37° C. The reaction products were detected at 405 nm using a PowerWave X automated plate reader (Bio-Tek Instruments).
As another confirmatory test for antisense p21 ODN-mediated apoptosis, caspase-3 activation was assessed. Members of the caspase family of proteases are essential components of an evolutionarily conserved cell death pathway in multicellular eukaryotes and play key roles in inflammation and apoptosis in mammalian cells. Caspase-3 has substrate specificity for the amino acid sequence DEVD (Asp-Glu-Val-Asp) and is inhibited by the tetrapeptide inhibitor Ac-DEVD-CHO; its catalytic activity was assessed colorimetrically using the labeled Ac-DEVD-pNA substrate. […] T47D cells were grown to confluence, serum starved for 24 hours, and lipofected with antisense p21 or control ODN at the concentrations indicated. Caspase-3 activity was assessed as described in “Capase-3 Activity” using a colorimetric method. […]

PARP = PARP cleavage by immunoblot in T47D cells
Experimental: As a further measure of apoptosis, cleavage of PARP was next examined. This protein is cleaved by caspases and results in appearance of Mr 85,000 and Mr 24,000 fragments, the latter of which binds irreversibly to broken ends of DNA, which assures irreversibility of apoptosis. Both breast cancer cell lines were transfected with antisense p21 and random sequence ODNs and immunoblotted with PARP antibody. […] T47D (A) and MCF7 (B) cells were grown to confluence, serum starved for 24 hours, and lipofected with antisense p21 or control ODN at the concentrations indicated. cont refers to nontransfected cells, and lipofect refers to cells treated with lipofectin but no DNA. The cells were lysed, and equal protein quantities were electrophoresed and immunoblotted with PARP antibody. The degradation product of PARP (Mr 85,000) is indicated by an arrow. MAPK is a loading control; a positive PARP cleavage control is Jurkat whole cell lysate.

[3] = compared with random sequence ODN

Substance | p21 level by immunoblot (p21 [1]) | p21 staining by immunohistochemistry (p21 [1]; [3]) | p21 level by immunoblot (p21 [2]) | p21 staining by immunohistochemistry (p21 [2]; [3]) | caspase-3 cleavage (activity) (caspase-3) | PARP cleavage (Mr 85,000 product) (PARP)
5′-ATC-CCC-AGC-CGG-TTC-TGA-CAT-3′ (antisense ATCCCCAGCCGGTTCTGACAT; listed as DNA, chemistry not fully specified) [antisense p21 ODN] | marked, dose-dependent attenuation | decreased p21 staining | marked, dose-dependent attenuation | decreased p21 staining | marked dose-dependent caspase-3 cleavage | marked PARP cleavage
5′-TGG ATC CGA CAT GTC AGA-3′ (dT*dG*dG*dA*dT*dC*dC*dG*dA*dC*dA*dT*dG*dT*dC*dA*dG*dA) [random sequence control oligonucleotide, reference compound] | moderate decrease |  | inhibitory effect |  | no change | proapoptotic effect
